One block for each compound: values may come before it.
Legend:
[1] = In vitro cytotoxic assay, MCF-7; type: cell-based; conditions: human, MCF-7 cells (breast cancer cell line); also: 0.1-25 µM tested
Description: (§1) Skin normal fibroblastic cells were purchased from Lonza (Basel, Switzerland). […] All culture media were supplemented by 10% of FBS, 1% of penicillin–streptomycin and 2 mM glutamine.
(§2) Chemicals were solubilized in DMSO at a concentration of 10 mM (stock solution) and diluted in culture medium to the desired final concentrations. […] Cells were plated in 96-well plates (4000 cells/well). Twenty-four hours after seeding, the cells were exposed to chemicals. […] Image acquisition and analysis were performed using a Cellomics ArrayScan VTI/HCS Reader (ThermoScientific, Les Ulis, France). The survival percentages were calculated as the percentage of cell number after compound treatment over cell number after DMSO treatment. The relative IC50 values were calculated using the curve fitting XLfit 5.5.0.5 (idbs) integrated in Microsoft Excel as an add-on.
(§3) 4.3.1. Cell culture. Skin normal fibroblastic cells are purchased from Lonza (Basel, Switzerland). Huh7- […]
(§4) from ATCC (American Type Culture Collection). […]
(§5) supplemented by 10% of FBS, 1% of penicillin-streptomycin and 2 mM glutamine.
(§6) 4.3.2. Cytotoxic assay. Chemicals were solubilized in DMSO at a concentration of 10 mM (stock solution) and diluted in culture medium to the desired final concentrations. The dose effect cytotoxic assays (IC50 determination) were performed by increasing the concentrations of each chemical (final well […]
(§7) Cells were plated in 96-well plates
(§8) (4000 cells/well). Twenty-four hours after seeding, cells were exposed to chemicals. After 48h of treatment, cells were washed in PBS and fixed in cooled 90% ethanol/5% acetic acid for 20 min and the […]
(§9) Image acquisition and analysis were performed using a Cellomics ArrayScan VTI/HCS Reader (ThermoScientific). The survival percentages were calculated as the percentage of cell number after compound treatment over cell number after DMSO treatment. The relative IC50 were calculated using the curve fitting XLfit 5.5.0.5 (idbs) integrated in Microsoft Excel as an add-on. The 4 Parameter Logistic Model or Sigmoidal Dose-Response Model describing the sigmoid-shaped response pattern was used (fit = (A+[(B-A)/(1+[(C/x)^D])]) where fit is the response and X is the tested concentration of the compound. The lower asymptote is A (also referred to as the bottom of the curve or lower plateau or the min) and the upper asymptote is B (also referred to as the top of the curve or upper plateau or the max). The slope of the linear part of the curve is described by the factor D. The parameter C is the concentration corresponding to the response midway between A and B. C is called “relative IC50” because it refers to the maximum response obtained by a […]
(§10) The results are represented as the mean ± standard error (SE) calculated from at least three independent experiments.

[2] = In vitro cytotoxic assay, Huh7-D12; type: cell-based; conditions: human, Huh7-D12 cells (liver cancer cell line)
Description: as §1, §2, §3, §4, §5, §6, §7, §8, §9, §10

[3] = In vitro cytotoxic assay, Caco-2; type: cell-based; conditions: human, Caco-2 cells (colon cancer cell line); also: 0.1-25 µM tested
Description: as §1, §2, §3, §4, §5, §6, §7, §8, §9, §10

[4] = In vitro cytotoxic assay, MDA-MB-468; type: cell-based; conditions: human, MDA-MB-468 cells (breast cancer cell line); read-out: In vitro cytotoxic activity IC50, MBA-MB4-68
Description: as §1, §2, §3, §4, §5, §6, §7, §8, §9, §10

[5] = In vitro cytotoxic assay, MDA-MB-231; type: cell-based; conditions: human, MDA-MB-231 cells (breast cancer cell line); read-out: In vitro cytotoxic activity IC50, MBA-MB-231; also: 0.1-25 µM tested
Description: as §1, §2, §3, §4, §5, §6, §7, §8, §9, §10

[6] = In vitro cytotoxic assay, HCT-116; type: cell-based; conditions: human, HCT-116 cells (colon cancer cell line)
Description: as §1, §2, §3, §4, §5, §6, §7, §8, §9, §10

[7] = In vitro cytotoxic assay, PC-3; type: cell-based; conditions: human, PC-3 cells (prostate cancer cell line); also: 0.1-25 µM tested
Description: as §1, §2, §3, §4, §5, §6, §7, §8, §9, §10

seven tumor cell lines = experiment: In vitro cytotoxic assay, whole panel of cancer cell lines; type: cell-based, human; conditions: Homo sapiens; lowest to highest IC50 among the seven cancer cell lines, 48 h; read-out: IC50 span over the cancer cell lines
Description: as §1, §2, §3, §4, §5, §6, §7, §8, §9, §10

melting point: 273 to 274 °C
SMILES: N#Cc1nc2c(ccc3c(=O)n(Cc4ccccc4)cnc32)s1 [Compound 5c, 7-Benzyl-6-oxo-6,7-dihydrothiazolo[5,4-h]quinazoline-2-carbonitrile]
IC50 at 48 h [1]: 16 µM
IC50 at 48 h [2]: 17 µM
IC50 at 48 h [3]: 11 µM
IC50 at 48 h [4]: 10 µM
IC50 at 48 h [5]: 24 µM
IC50 (seven tumor cell lines): 4 to 24 µM
IC50 at 48 h [6]: 4 µM
IC50 at 48 h [7]: 12 µM

melting point: 259 to 260 °C
SMILES: COc1ccc(Nc2ncnc3cc4sc(C#N)nc4cc23)c(F)c1 [Compound 14a, 8-[(2-Fluoro-4-methoxyphenyl)amino]thiazolo[4,5-g]quinazoline-2-carbonitrile]

melting point: 255 to 256 °C
SMILES: COc1ccc(Nc2ncnc3cc4nc(C#N)sc4cc23)c(F)c1 [Compound 14b, 8-[(2-Fluoro-4-methoxyphenyl)amino]thiazolo[5,4-g]quinazoline-2-carbonitrile]

Further lines, the compound ahead of its results:

SMILES: COc1cccc2c1C(=O)c1c(O)c3c(c(O)c1C2=O)C[C@@](O)(C(=O)CO)C[C@@H]3O[C@H]1C[C@H](N)[C@H](O)[C@H](C)O1 [Doxo, Doxorubicin, reference compound]
IC50 at 48 h [1]: 0.05 µM
IC50 at 48 h [2]: 0.03 µM
IC50 at 48 h [3]: 0.03 µM
IC50 at 48 h [4]: 0.04 µM
IC50 at 48 h [5]: 0.02 µM
IC50 at 48 h [6]: 0.05 µM
IC50 at 48 h [7]: 0.08 µM

SMILES: CC(=O)O[C@H]1C(=O)[C@@]2(C)[C@H]([C@H](OC(=O)c3ccccc3)[C@]3(O)C[C@H](OC(=O)[C@H](O)[C@@H](NC(=O)c4ccccc4)c4ccccc4)C(C)=C1C3(C)C)[C@]1(OC(C)=O)CO[C@@H]1C[C@@H]2O [Taxol, reference compound]
IC50 at 48 h [1]: 0.006 µM
IC50 at 48 h [2]: 0.016 µM
IC50 at 48 h [3]: 0.02 µM
IC50 at 48 h [4]: 0.003 µM
IC50 at 48 h [5]: 0.01 µM
IC50 at 48 h [6]: 0.003 µM
IC50 at 48 h [7]: 0.004 µM

SMILES: N#Cc1nc2cc3c(=O)n(Cc4ccccc4)cnc3cc2s1 [Compound 5a, 7-Benzyl-8-oxo-7,8-dihydrothiazolo[4,5-g]quinazoline-2-carbonitrile]
IC50 at 48 h [1]: 8 µM
IC50 at 48 h [2]: > 25 µM
IC50 at 48 h [3]: 10 µM
IC50 at 48 h [4]: 11 µM
melting point: 237 to 238 °C
IC50 at 48 h [5]: > 25 µM
IC50 (seven tumor cell lines): 7 to 62 µM
IC50 at 48 h [6]: 7 µM
IC50 at 48 h [7]: 9 µM

SMILES: N#Cc1nc2cc3ncn(Cc4ccccc4)c(=O)c3cc2s1 [Compound 5b, 7-Benzyl-8-oxo-7,8-dihydrothiazolo[5,4-g]quinazoline-2-carbonitrile]
IC50 at 48 h [1]: 2 µM
IC50 at 48 h [2]: 3 µM
IC50 at 48 h [3]: 1 µM
IC50 at 48 h [4]: 1 µM
melting point: 217 to 218 °C
IC50 at 48 h [5]: 3 µM
IC50 (seven tumor cell lines): 1 to 3 µM
IC50 at 48 h [6]: 2 µM
IC50 at 48 h [7]: 2 µM

SMILES: N#Cc1nc2ccc3c(=O)n(Cc4ccccc4)cnc3c2s1 [Compound 5d, 7-Benzyl-6-oxo-6,7-dihydrothiazolo[4,5-h]quinazoline-2-carbonitrile]
IC50 at 48 h [1]: 12 µM
IC50 at 48 h [2]: 18 µM
IC50 at 48 h [3]: 9 µM
IC50 at 48 h [4]: 11 µM
IC50 at 48 h [5]: 14 µM
IC50 (seven tumor cell lines): 7 to 18 µM
IC50 at 48 h [6]: 7 µM
IC50 at 48 h [7]: 11 µM

From publication PMC11597202, “Novel Thiazole-Fused [4,5-g] or [5,4-g]Quinazolin-8-ones and Their Quinazoline Analogues: Synthesis and Biological Evaluation” (Pharmaceuticals, 2024)
